Measurements taken from patent US20100004202A1, “Quaternary ammonium-functionalized-POSS compounds” (NDSU Research Foundation, priority 2008, published 2010).

Experiments:
[1] = test system: Escherichia coli ATCC 12435; assay: Antimicrobial activity of Q-POSS in solution, bacterial log reduction; assay type: cell-based; settings: equal concentration 9.63×10^−5 moles/ml; 2 hrs at room temperature
Experimental: Antimicrobial characterization. The antimicrobial activity of the Q-POSS in methanol was determined as follows. Stocks of Escherichia coli ATCC 12435 and Staphylococcus aureus ATCC 25923 were maintained weekly at 4° C. on LBA and TSB, respectively. Broth cultures of E. coli (LBB) and S. aureus (TSB) were prepared by inoculating one colony into 10 ml of broth and incubating at 37° C. with shaking. Overnight cultures were pelleted via centrifugation (10 min at 4500 rpm), washed twice in 0.9% NaCl, and re-suspended to a 0.5 McFarland turbidity standard (˜10^8 cells/ml). Q-POSS (2 μL) was added to the bacterial suspension (1 mL) previously dispensed into a well of a sterile 24-well polystyrene plate. The plates were then placed on an orbital shaker and allowed to incubate for 2 hrs at room temperature. Each Q-POSS/bacterial suspension (0.1 mL of each) was immediately transferred to D/E neutralization medium (0.9 ml) in a 1.5 mL microcentrifuge tube, and serially diluted (1:10) in D/E medium. […] After 24 hr of incubation, the plates were removed from the incubator and photographed with a digital camera to quantify bacterial growth in solution. […] Methanol was also evaluated for antimicrobial activity as it was used to solublize the Q-POSS for biological evaluations. […]

E. coli = assay: Minimum inhibitory concentration (MIC); assay type: cell-based; settings: overnight incubation 37° C., absorbance at 600 nm
Experimental: The minimum inhibitory concentration (MIC), of Q-POSS compounds and non-Q-POSS compounds were compared and the results are shown in Table 4. As used herein, MIC refers to the lowest concentration of an antimicrobial agent that will inhibit the visible growth of a microorganism after overnight incubation. The procedure was carried out by serially diluting the antimicrobial agent in growth medium and adding the appropriate microorganism. Three 200 μl aliquots of each dilution (inoculated with the appropriate microorganism) were transferred to a 96-well plate and allowed to incubate overnight at the appropriate temperature (37° C. for biomedical microorganisms such as E. coli). The plates were then measured for absorbance at 600 nm to determine microbial growth.

Solubility in methanol = assay type: physicochemical
Excerpt: The octasilane-POSS, which was insoluble in methanol, was rendered soluble in methanol after the derivatization to Q-POSS.

Compound: Benzalkonium chloride
- Log Reduction against E. coli [1]: 7.0
- MIC against E. coli (E. coli): 50 µg/mL

Compound: C[SiH](C)O[Si]12O[Si]3(O[SiH](C)C)O[Si]4(O[SiH](C)C)O[Si](O[SiH](C)C)(O1)O[Si]1(O[SiH](C)C)O[Si](O[SiH](C)C)(O2)O[Si](O[SiH](C)C)(O3)O[Si](O[SiH](C)C)(O4)O1 [octasilane-POSS, Octasilane-POSS]
- solubility in methanol (Solubility in methanol): insoluble
